The test system of test [1] is CD146+ perivascular tendon stem/progenitor cells (PTSCs). It counts as cell-based, rat.
For test [2], the system named is FAK. Nature of the test: Western blot, P-FAK in CD146- tendon cells. The format is cell-based, rat. The conditions noted are these: CD146− tendon cells (excluding PTSCs). The protocol:
(§1) Activation of FAK and ERK1/2 signaling by Oxo-M and 4-PPBP was further confirmed by western blot and siRNA knockdown (KD). […] With combined Oxo-M and 4-PPBP, both P-FAK and P-ERK1/2 were detected (FIG. 3A). […] In addition, siRNA KD of FAK and ERK1/2 were performed as described previously (Lee, et al., 2015, supra), which is hereby incorporated herein by reference in its entirety for all purposes.

In test [3] the test system is fully transected rat patellar tendons. As to the kind of experiment: Healing of fully transected rat patellar tendon, delivery via fibrin glue. It counts as in vivo. The conditions noted are these: for tendon healing, H&E staining: Oxo-M 1 mM, 4-PPBP 10 μM in fibrin; for alignment of collagen fibers (Picrosirius Red, automated digital image processing): n=6; for effect on induced tenogenic differentiation of PTSCs and tendon healing: overall statement.

In test [4] the test system is FAK. As to the kind of experiment: Western blot, phosphorylation of FAK in PTSCs. The format is cell-based, rat. To be noted: 12 hours treatment in PTSCs. As to the method: as §1
The next test deals with ERK1/2. As to the kind of experiment: Western blot, phosphorylation of ERK1/2 in PTSCs. It counts as cell-based, rat. The conditions noted are these: 12 hours treatment in PTSCs. The protocol: as §1

The text below walks through data of patent US10583117B2, “Oxo-M and 4-PPBP induction of tenogenic differentiation of perivascular tendon stem cells” (The Trustees of Columbia University in the City of New York, priority 2016, dated 2020).

Entries after “also recorded” stand apart in the source; their conditions may differ.

Turning to `O=C(O)/C=C\C(=O)O.c1ccc(CCCCN2CCC(c3ccccc3)CC2)cc1` [4-PPBP, 4-phenyl-1-(4-phenylbutyl)-piperidine maleate], in test [1] (maleate), the COL-I gene expression entry was “elevated; also recorded: significantly increased” and the COL-III gene expression entry was “elevated; also recorded: significantly increased”. In addition, the P-FAK band result in the test on FAK [2] is on record as “no P-FAK band”. In test [3] (1 week post-op), the “collagen fibers, polarized Picrosirius Red images” value is on record as “disrupted collagen structure” and the “tendon healing, H&E staining” value is recorded as “disorganized scar-like tissue”. Moreover, in test [3] (2 weeks post-op), the “collagen fibers, polarized Picrosirius Red images” value is recorded as “disrupted collagen structure”; the “collagen in healing zone, Masson's Trichrome staining” value is on record as “disrupted collagen structure”; the “tendon healing, H&E staining” value is given as “scar-like healing”. Moreover, in test [3], the “alignment of collagen fibers (Picrosirius Red, automated digital image processing)” value is “disoriented fibers”; the “effect on induced tenogenic differentiation of PTSCs and tendon healing” value is listed as “only minimal effect”. Moreover, the “phosphorylation of FAK (P-FAK)” value with FAK [4] is on record as “resulted in phosphorylation”.

For the molecule `C[N+](C)(C)CC#CCN1CCCC1=O` [Oxo-M, Oxotremorine methiodide], the “phosphorylation of ERK1/2 (P-ERK1/2)” value in the test on ERK1/2 is recorded as “resulted in phosphorylation”. Besides, in test [1], the Scx gene expression result was “significant increases; also recorded: significantly increased”, the Tn-C gene expression entry is recorded as “significant increases; also recorded: significantly increased” and the VIM gene expression entry is recorded as “significant increases; also recorded: significantly increased”. Besides, the P-FAK band result with FAK [2] is listed as “no P-FAK band”. Besides, in test [3] (1 week post-op), the “collagen fibers, polarized Picrosirius Red images” value was “disrupted collagen structure” and the “tendon healing, H&E staining” value is given as “disorganized scar-like tissue”. In test [3] (2 weeks post-op), the “collagen fibers, polarized Picrosirius Red images” value was “disrupted collagen structure”; the “collagen in healing zone, Masson's Trichrome staining” value is “disrupted collagen structure”; the “tendon healing, H&E staining” value was “scar-like healing”. Besides, in test [3], the “alignment of collagen fibers (Picrosirius Red, automated digital image processing)” value was “disoriented fibers”; the “effect on induced tenogenic differentiation of PTSCs and tendon healing” value is listed as “only minimal effect”. Further, the “phosphorylation of FAK (P-FAK)” value in the test with FAK [4] is “resulted in phosphorylation”.
